Source: the METLIN SMRT retention time set (Domingo-Almenara et al. 2019)

Experiment: gradient 5% acetonitrile 3 min, to 50% in 2 min, to 85% in 15 min, held 3 min, 100 µL/min
Details: column: Zorbax Extend-C18 2.1 x 50 mm; eluents: water / acetonitrile, 0.1% formic acid
Method in brief: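 A Zorbax Extend-C18 column (2.1 × 50 mm, 1.8 μm) run at 100 μL/min with water and acetonitrile, both containing 0.1% formic acid, separated mixtures of ~100 pure standards. The HPLC was coupled to a quadrupole time-of-flight mass spectrometer operated in positive and negative ionization mode, with dead and dwell volumes of 40 μL and 900 μL. Each retention time was taken from a computationally picked adduct peak that was then manually inspected.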

Row | RP-LC retention time [s] | Structure (SMILES)
1 | 861 | Cc1nc(Nc2ccc(F)cn2)sc1C(=O)N1CCN(c2ccc(F)cc2)CC1
2 | 644 | CN1CCN(c2cc(C(=O)O)c3cc(NS(=O)(=O)c4ccc(Cl)c(Cl)c4)ccc3n2)CC1
3 | 556 | Cc1ccc(CN2CCC3(CC2)CC(C)(O)CCO3)nc1 (stereo not given)
4 | 931 | COc1ccc(OC)c(NC(=O)C2CCN(S(=O)(=O)c3cc(-c4noc(C)n4)cs3)CC2)c1
5 | 1000 | Cn1cccc1-c1noc(C2CCN(S(=O)(=O)c3ccc4c(c3)OCCO4)CC2)n1
6 | 550 | CCn1nnc2c(N3CCN(CC(=O)NC4CCCC4)CC3)ncnc21
7 | 1230 | Cc1cccc(OCc2nc(C)c(C(=O)Nc3nc(-c4ccc5c(c4)OCCCO5)cs3)s2)c1
8 | 612 | CC(C)Cn1c(=O)c(N2CCN(S(=O)(=O)c3ccccc3)CC2)nc2ccncc21
9 | 775 | CCN1CCCn2cc(S(=O)(=O)Nc3ccc(C)cc3Cl)cc2C1=O
10 | 634 | O=C(NCC1CCCO1)NC1CC(=O)N(c2ccc(Cl)cc2)C1 (stereo not given)
11 | 604 | CC(=O)c1ccc(NC(=O)CC(C)n2cncn2)cc1 (stereo not given)
12 | 682 | O=C(NCCCN1CCc2ccccc2C1)C1CCCN(S(=O)(=O)N2CCCCCC2)C1 (stereo not given)
13 | 975 | CCS(=O)(=O)c1nc2ccc(NS(=O)(=O)c3ccc(C(C)C)cc3)cc2s1
14 | 654 | O=C(NC1CCCC1)C1CCN(c2nc3ccc(-c4cccnc4)nc3s2)CC1
15 | 960 | C=CCN1C(=O)C(C)(C)COc2ccc(NC(=O)Oc3ccccc3)cc21
16 | 720 | CC(C)NC(=O)C1CCCN(C(=O)Nc2ccc(NC(=O)Nc3ccccc3)cc2)C1 (stereo not given)
17 | 959 | O=c1c2sccc2n(Cc2nc(-c3ccccc3)no2)c(=O)n1-c1cccc(F)c1
18 | 700 | O=C(C1CCN(c2cncnc2N2CCOCC2)CC1)N1CCC(Cc2ccccc2)CC1

Row | RP-LC retention time [s] | Structure (SMILES)
19 | 672 | CC(C)n1c(=O)c(NCCc2ccccc2)nc2ccncc21
20 | 783 | Cc1ccsc1C(=O)NCC1Cn2cccc2C(=O)N1CC(C)C (stereo not given)
21 | 643 | O=C(NC1CCN(c2cc(-c3cccnc3)[nH]n2)CC1)c1ccc(F)c(Cl)c1
22 | 922 | Cc1ccc(CNC(=O)CN2C(=O)C3CCCCN3c3ccc(S(=O)(=O)N(C)C)cc32)cc1 (stereo not given)
23 | 1150 | CC(C)Oc1ccc(-c2noc(Cn3ncn4nc(-c5cccs5)cc4c3=O)n2)cc1
24 | 1310 | Cc1ccccc1-c1nc(-c2ccc(-n3cccn3)nc2)no1
25 | 602 | O=C(Cn1ncn2nc(-c3ccccc3)cc2c1=O)NCCCN1CCCC1
26 | 1060 | Fc1cc(F)cc(-c2nc(-c3cccc(-c4ccn[nH]4)c3)no2)c1
27 | 635 | Cn1ncc2c(N3CCSCC3)nc(C(=O)N3CCOCC3)nc21
28 | 890 | CCOC(=O)c1ccc(NC(=O)c2cccc([N+](=O)[O-])c2)cc1
29 | 1160 | CCc1nc(-c2cc(S(=O)(=O)Nc3cc(C)ccc3C)c(C)s2)cs1
30 | 742 | Cc1ccc(S(=O)(=O)N2CCC3(CC2)NCCN=C3NCc2ccc(Cl)cc2)cc1
31 | 1000 | COc1cccc(NC(=O)C2CCN(S(=O)(=O)c3cc(-c4noc(C5CC5)n4)cs3)CC2)c1
32 | 1060 | COc1ccc(NC(=O)C2CCCN(c3nc4ccccc4nc3C(F)(F)F)C2)cc1OC (stereo not given)
33 | 741 | O=C(CC1CCN(C(=O)NCc2ccccc2)CC1)NCc1cccc(F)c1
34 | 636 | O=C1C(c2cccnc2)N(Cc2ccc3c(c2)OCO3)C(=O)CN1c1ccccc1 (stereo not given)
35 | 575 | COc1ccc(NC(=O)CCC2CCN(c3cc(NC4CC4)ncn3)CC2)c(C)c1

Further lines, the compound ahead of its results:

Row | Structure (SMILES) | RP-LC retention time [s]
36 | Cn1nc(-c2nnc(-c3ccccc3Cl)o2)c2c1CCN(C(=O)COc1ccccc1)C2 | 864
37 | CCCN1C(=O)COc2ccc(-c3csc(NC(=O)c4cc(OC)c(OC)c(OC)c4)n3)cc21 | 1040
38 | CC(CNC(=O)CN1C(=O)C2CCCCN2c2ccc(S(=O)(=O)N(C)C)cc21)c1ccccc1 (stereo not given) | 943
39 | c1ccc(OCc2nc(-c3ccc(-n4ccnc4)nc3)no2)cc1 | 689
40 | O=C(C1=C(O)C(=O)N(CCCn2ccnc2)C1c1cccc([N+](=O)[O-])c1)c1cccs1 (stereo not given) | 565
41 | CCC(=O)Nc1ccc(CCc2nc3ccc(C(=O)NCc4ccc(SC)cc4)cc3[nH]2)cc1 | 683
42 | CCOC(=O)c1sc(NC(=O)C2CCCO2)nc1-c1ccccc1 (stereo not given) | 950
43 | O=S(=O)(Nc1cnn(-c2ncc(N3CCCC3)cn2)c1)c1ccc2c(c1)CCCC2 | 983
44 | O=C(CN1C(=O)C2CCCCN2c2ccc(S(=O)(=O)N3CCCC3)cc21)NC1CCCC1 (stereo not given) | 761
45 | COc1ccc(-c2nc3cnccn3c2Nc2ccccc2C)cc1OC | 793
46 | Cc1cn2c(S(=O)(=O)NC3CCCCCC3)c(C(C)C)nc2s1 | 1050
47 | CNc1nc(Nc2cn(C(C)(C)C#N)nc2C)ncc1C(F)(F)F | 696
48 | CCc1ccccc1NC(=O)Cn1cnc2nc(N3CCCC(C(=O)NC(C)C)C3)sc2c1=O (stereo not given) | 759
49 | CCC(C)N(CC(=O)N1CCc2sccc2C1COc1ccccc1C)C(=O)COC (stereo not given) | 942
50 | COC(=O)c1nnc2c(-c3ccccc3OC)c(C)nn2c1C | 869
51 | O=C1CCCN2N=C(SCc3ccc([N+](=O)[O-])cc3)SC2=N1 | 779
52 | COc1c(C(=O)N2CCN(c3ccccc3F)CC2)sc2cccc(F)c12 | 1100
53 | O=C(NCc1cccs1)c1ccc(-c2cccnc2)nc1 | 614
54 | O=C(CN1C(=O)CCc2cc(Br)ccc21)N1CCN(c2ccc(F)cc2)CC1 | 949
55 | CSc1ccc(CNC(=O)Cn2c(C)cc(C)c(C#N)c2=O)cc1 | 698
56 | CCn1cc(-c2nc(C(=O)Nc3ccc(Cl)cc3F)cs2)c2cccnc21 | 1350
57 | O=C(NCC(c1cccnc1)c1c[nH]c2ccccc12)Nc1ccc(Br)cc1F (stereo not given) | 716
58 | Cn1cc(CN2CCN(C(=O)c3cc(-c4cccs4)[nH]n3)CC2)c2ccccc21 | 664
59 | O=C(Cc1cccc(Cl)c1)N1[C@H]2CC[C@@H]1c1cnc(-c3ccccc3)nc1C2 | 990
60 | CCS(=O)(=O)N1CCCc2cc(C(=O)NCCCOC)ccc21 | 700
61 | CCN(CC)S(=O)(=O)c1ccc(NC(=O)N2CCCC(C(=O)Nc3ccc(OC)cc3)C2)s1 (stereo not given) | 884
62 | Cc1ccc(-c2nc(N3CCOCC3)ncc2C(=O)O)cc1 | 770
63 | Cc1cc(C)n(-c2ccc(C(=O)NC3CCCC3)cn2)n1 | 885
64 | CC(=O)N1CCC(C(=O)N2CCCN(c3cc(-c4ccc(Cl)cc4)[nH]n3)CC2)CC1 | 648
65 | CCCCNC(=O)c1cc(NS(=O)(=O)c2ccc(C(C)(C)C)cc2)cnc1N1CCNCC1 | 706
